In the METLIN SMRT retention time set (Domingo-Almenara et al. 2019):

Experiment: gradient 5% acetonitrile 3 min, to 50% in 2 min, to 85% in 15 min, held 3 min, 100 µL/min
Conditions: column: Zorbax Extend-C18 2.1 x 50 mm; eluents: water / acetonitrile, 0.1% formic acid
Outline: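 A Zorbax Extend-C18 column (2.1 × 50 mm, 1.8 μm) run at 100 μL/min with water and acetonitrile, both containing 0.1% formic acid, separated mixtures of ~100 pure standards. The HPLC was coupled to a quadrupole time-of-flight mass spectrometer operated in positive and negative ionization mode, with dead and dwell volumes of 40 μL and 900 μL. Each retention time was taken from a computationally picked adduct peak that was then manually inspected.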

Row | Compound | RP-LC retention time
1 | CCCCC(SC1=Nc2ccccc2C2=NC(Cc3c[nH]c4ccccc34)C(=O)N12)C(=O)OCC (centres undefined) | 1110 s
2 | Cc1ccccc1-c1nc2nc(C)c(CC(=O)N3CCCC3)c(C)n2n1 | 735 s
3 | O=C(Cn1cccc(-c2nc(-c3ccccc3)no2)c1=O)Nc1ccccc1Cl | 885 s
4 | Cc1ccnc(Nc2nc(-c3ccc(C)c(C)c3)cs2)c1 | 902 s
5 | c1cn(-c2cc(N3CCCCC3)ncn2)cn1 | 613 s
6 | Cc1ccc(CNC(=O)C2CCN(Cc3cn(C)c4ccc(Cl)cc34)CC2)cc1 | 733 s
7 | CC(=O)N1CCC(C(=O)Nc2nnc(C3CC3)s2)CC1 | 605 s
8 | Cc1nc2cc(-c3noc(-c4ccc(Cl)cc4)n3)ccc2o1 | 1210 s
9 | Cc1cc(NC(=O)c2cn(Cc3cccc(F)c3)nc2OCc2cccc(F)c2)no1 | 1040 s
10 | COc1ccc(N2C(=O)CCS2(=O)=O)cc1S(=O)(=O)NCCc1c[nH]c2ccccc12 | 792 s
11 | Fc1ccc(Cc2nc3nccc(-c4ccccc4)n3n2)cc1 | 890 s
12 | O=C(Cn1ccnc1-c1ccnc(N2CCSCC2)c1)N1CCN(c2ccccc2)CC1 | 697 s
13 | CCOC(=O)c1cccc(NC(=O)Cc2csc3nc(-c4ccc(OC)c(OC)c4)cn23)c1 | 761 s
14 | COc1cccc(S(=O)(=O)N2CCOCC2)c1 | 708 s
15 | COc1c2c(cc3c1OCO3)CCN(C)C2 | 598 s
16 | Cc1ccc(-n2c(=O)c3c(cc(C)n3C)n(CC(=O)Nc3cc(C)cc(C)c3)c2=O)cc1 | 844 s
17 | Cc1ccc2c(C(=O)N3CCC(C)CC3)cc(NC(=O)C3CCC3)cc2n1 | 652 s
18 | CCOCC(=O)N1CCN(S(=O)(=O)c2c(C)nn(C(C)C)c2C)CC1 | 702 s
19 | COC(=O)c1cc(OCC(=O)Nc2ccc3c(c2)OCCO3)c2ccccc2n1 | 755 s
20 | CCC(=O)Nc1ccc(CCc2nc3ccc(C(=O)NCC4CCCO4)cc3[nH]2)cc1 (centres undefined) | 592 s
21 | CCc1cccc2c3c([nH]c12)[C@@](CC)(CC(=O)O)OCC3 | 925 s
22 | O=C(Nc1cccc(F)c1)N1CCC(N2CCN(Cc3ccccc3)C(=O)C2=O)CC1 | 732 s
23 | Cn1c(=O)c(N2CCC(NC(=O)Nc3ccc(Cl)cc3)CC2)nc2cccnc21 | 907 s

Row | Compound | RP-LC retention time
24 | O=C(CCCN1C(=O)C2C3C=CC(C3)C2C1=O)N1CCN(c2ccc(F)cc2)CC1 (centres undefined) | 800 s
25 | Cc1ccc(-c2ccc(N3CCCC(C(=O)NCc4ccc(Br)cc4)C3)nn2)cc1 (centres undefined) | 806 s
26 | COc1ccc(C(=O)NCCS(=O)(=O)NCc2cccnc2)cc1 | 547 s
27 | CC1CCN(C(=O)c2cn(-c3cc(-c4nc(C5CC5)no4)ccn3)cn2)CC1 | 907 s
28 | CC(=O)N1CCc2cc(N3CC(C(=O)Nc4ccc(Br)cc4)CC3=O)ccc21 (centres undefined) | 770 s
29 | COc1ccc(C(=O)N2CCc3cc(-c4csc(C5CC5)n4)ccc32)cn1 | 1070 s
30 | Cc1ccc(C)c(S(=O)(=O)N2CCC(c3nc(C(=O)N4CCOCC4)c(C)o3)CC2)c1 | 891 s
31 | O=C(NCc1ccccc1F)C1CCCN(c2nc3ccsc3c(=O)n2Cc2ccc(F)cc2)C1 (centres undefined) | 958 s
32 | COc1ccc(NC(=O)N2CCC3(CC2)Nc2ccccc2-n2cccc23)c(OC)c1 | 1000 s
33 | c1cncc(CN2CCCC(OCc3nc(-c4ccncc4)no3)C2)c1 (centres undefined) | 557 s
34 | CCN1CCN(CCCNC(=O)C2CCCN(c3nn4c(=O)c5c(nc4s3)CCCC5)C2)CC1 (centres undefined) | 554 s
35 | COc1ccc(NC(=O)Cn2cccc2-c2nc(-c3ccc4c(c3)OCO4)no2)c(OC)c1 | 1040 s
36 | CN(CCNC(=O)c1sc2ncccc2c1-n1cccc1)Cc1ccccc1 | 666 s
37 | CCOC(=O)c1cnc2c(-c3ccc(Br)cc3)c(C)nn2c1N | 1230 s
38 | O=C(NCC1CCCCC1)C1CCCN(c2nccn3nc(-c4ccccc4Cl)cc23)C1 (centres undefined) | 1040 s
39 | Cc1c(-c2nnc(C(=O)NCCCN3CCCCCC3)o2)oc2ccccc12 | 674 s
40 | CCc1onc(C)c1C1CCCN1C(=O)c1ccc(OC)c(OC)c1 (centres undefined) | 714 s
41 | O=C(N1CCCC1c1noc(COCc2ccccc2)n1)C1(c2ccccc2)CC1 (centres undefined) | 1040 s
42 | Cc1ccc(CNC(=O)CN2C(=O)CCCc3cc(S(=O)(=O)N4CCC(C)CC4)ccc32)cc1 | 961 s
43 | COC(=O)c1sccc1NC(=O)N1CCCn2nc(-c3ccncc3)cc2C1 | 647 s
44 | Cn1cc(S(=O)(=O)N2CCCCC2)cc1C(=O)N1CCN(c2ccc(F)cc2)CC1 | 940 s
45 | COc1ncccc1CNC(=O)NCc1ccco1 | 568 s
46 | CNC(=O)CCc1nc2ccccc2n(CC(=O)N2CCOc3ccc(C)cc32)c1=O | 728 s

Row | Compound | RP-LC retention time
47 | Cc1cccc2cc3cccc(C)c3nc12 | 696 s
48 | COCCN1CC(CO)C2(CCN(Cc3ccc(Cl)cc3F)CC2)C1 (centres undefined) | 538 s
49 | O=C(COc1ccc(-c2nnc3n2CCCC3)cc1)Nc1ccc(Cl)cc1 | 757 s
50 | Cc1cc(C)cc(C(=O)N2CCN(c3nnc4ccccn34)CC2)c1 | 657 s
51 | O=C(NCCCc1ccccc1)c1nnc(-c2ccc(S(=O)(=O)N3CCOCC3)cc2)o1 | 911 s
52 | O=C(CCc1nc2ccccc2s1)N1C[C@H]2CNC(=O)[C@]23CCCC[C@@H]13 | 705 s
53 | COc1ccc(C(=O)Oc2ccc[nH]c2=O)cc1 | 721 s
54 | COc1ccc2c(c1)C1(CCN(S(=O)(=O)c3cc(F)ccc3C)C1)C(=O)N2C (centres undefined) | 997 s
55 | CCOC(=O)c1cc([N+](=O)[O-])sc1NC(=O)CC | 915 s
56 | COC(=O)CCC(=O)Nc1nc(-c2ccccc2)cs1 | 840 s
57 | O=C(NCc1ccccc1F)C1=C2CCCN2c2ccc(F)cc2S1(=O)=O | 868 s
58 | COc1cccc(-c2nnc(Cc3nc(-c4ccccc4Cl)no3)o2)c1 | 1020 s
59 | Cc1ccc(NC(=O)C2CCCN(c3ccc(=O)n(-c4cccc(Cl)c4)n3)C2)cc1C (centres undefined) | 960 s
60 | CC(NC(=O)c1ccccc1)c1nc(-c2ccc(NS(=O)(=O)c3cccs3)cc2)no1 (centres undefined) | 890 s
61 | Cc1ccc(-c2nc3nc(C)cc(C)n3c2Nc2cccc(C(F)(F)F)c2)cc1 | 817 s
62 | Cc1ccc(-n2nc(SC(C)C(=O)NC3CC3)ccc2=O)cc1Cl (centres undefined) | 750 s
63 | Oc1ccc(Nc2nc(-c3ccccc3)cs2)cc1 | 818 s
64 | Cc1ccc(C2Cn3nnc(-c4nc(-c5ccccc5)no4)c3CO2)c(C)c1 (centres undefined) | 1240 s
65 | O=C(Nc1ccc2c(c1)OCCO2)C1CCCN(c2nccnc2Sc2ccccc2)C1 (centres undefined) | 1030 s
66 | CC1CCCCN1CCCNC(=O)C1CCN(c2nc3cccnc3s2)CC1 (centres undefined) | 587 s
67 | Cc1ccc(C)c(NC(=O)Cn2c(=O)n(-c3ccc(F)cc3)c3ncccc32)c1 | 880 s
68 | CC1CCN(S(=O)(=O)c2ccc3c(c2)CCCC(=O)N3CC(=O)NC2CCCC2)CC1 | 874 s
69 | CCN1CCN(c2nc3cc(C(=O)OC)ccc3c(=O)n2-c2ccc(F)c(Cl)c2)CC1 | 655 s

Row | Compound | RP-LC retention time
70 | CCc1cc(N2CCN(C(=O)c3ccc(N(C)C)cc3)CC2)nc2nncn12 | 586 s
71 | CCn1cc(-c2nc(-c3ccc(F)cc3)no2)c(=O)c2cc(F)c(N3CCOCC3)cc21 | 951 s
72 | O=C(Nc1ccc(S(=O)(=O)N2CCOCC2)cc1)c1ccc(Cl)s1 | 767 s
73 | O=S(=O)(c1cc(F)ccc1F)N1CCN(Cc2cccc(F)c2)C2(CCOCC2)C1 | 886 s
74 | Cc1nn2c(S(=O)(=O)NCC3CC3)c(C)nc2s1 | 690 s
75 | CSc1ccc(NC(=O)Nc2cc(C)ccn2)cc1 | 782 s
76 | CCOc1ccccc1NC(=O)c1c(O)c2cccnc2n(-c2ccc(F)cc2)c1=O | 1280 s
77 | CC(=O)Nc1ccc(CCc2nc3ccc(C(=O)NCCc4c[nH]c5ccccc45)cc3[nH]2)cc1 | 644 s
78 | Cc1nn(-c2ccc(C(=O)NC(C)C)cc2)c2c1C(=O)CC(C)(C)C2 | 775 s
79 | O=C(N[C@H]1C[C@@H]2C[C@H]1N(C(=O)NCc1cccc(F)c1)C2)c1cccs1 | 765 s
80 | O=C(NC1CCCCC1)N1CCN(c2ncccc2-c2nnc(C3CC3)o2)CC1 | 745 s
81 | O=S(=O)(NC1CCCCCC1)c1ccc2c(c1)-c1oncc1CO2 | 1000 s
82 | COc1cc(-c2nc3ccc(Cl)cn3c2Nc2ccc(Cl)cc2)ccc1O | 746 s
83 | O=C(NCCCN1CCCc2ccccc21)C1CCc2nc(N3CCCCC3)ncc2C1 (centres undefined) | 827 s
84 | COc1ccccc1-c1nc(Cn2ccn3nc(-c4ccc5c(c4)OCO5)cc3c2=O)c(C)o1 | 960 s
85 | CCOc1ccc2cccc(NC(=O)Cc3cccc(OC)c3)c2n1 | 1120 s
86 | CC(C)CC(=O)N[C@H](Cc1ccccc1)C(=O)NCc1cscn1 | 699 s
87 | Cc1ccc(C)c(N2CCN(C(=O)C3CCCN(C(=O)c4[nH]c(C)cc4C)C3)CC2)c1 (centres undefined) | 1010 s
88 | COc1ccc(S(=O)(=O)N2[C@H]3CC[C@@H]2c2cncnc2C3)cc1 | 715 s
89 | Cn1cc(-c2cc3n(n2)CCCN3C(=O)CCC(=O)NCc2ccco2)c2ccccc21 | 754 s
